Measured values taken from patent US12503438B2, “Compounds for the treatment of kinase-dependent disorders” (Exelixis, Inc., priority 2019, dated 2025).
pIC50: −log10 of the molar value.

How the values were obtained:
Type in all cases: cell-based
[1] = biological target: Met (Homo sapiens, UniProt P08581); test: Met autophosphorylation ELISA in PC-3 cells; design: endogenous in cells; host or cells: PC-3 prostate cancer cells (ATCC #CRL-1435); conditions: cellular activity, HGF-stimulated, phospho-Met ELISA, read-out: c-Met IC50
Sequence of Met (P08581 25-1390): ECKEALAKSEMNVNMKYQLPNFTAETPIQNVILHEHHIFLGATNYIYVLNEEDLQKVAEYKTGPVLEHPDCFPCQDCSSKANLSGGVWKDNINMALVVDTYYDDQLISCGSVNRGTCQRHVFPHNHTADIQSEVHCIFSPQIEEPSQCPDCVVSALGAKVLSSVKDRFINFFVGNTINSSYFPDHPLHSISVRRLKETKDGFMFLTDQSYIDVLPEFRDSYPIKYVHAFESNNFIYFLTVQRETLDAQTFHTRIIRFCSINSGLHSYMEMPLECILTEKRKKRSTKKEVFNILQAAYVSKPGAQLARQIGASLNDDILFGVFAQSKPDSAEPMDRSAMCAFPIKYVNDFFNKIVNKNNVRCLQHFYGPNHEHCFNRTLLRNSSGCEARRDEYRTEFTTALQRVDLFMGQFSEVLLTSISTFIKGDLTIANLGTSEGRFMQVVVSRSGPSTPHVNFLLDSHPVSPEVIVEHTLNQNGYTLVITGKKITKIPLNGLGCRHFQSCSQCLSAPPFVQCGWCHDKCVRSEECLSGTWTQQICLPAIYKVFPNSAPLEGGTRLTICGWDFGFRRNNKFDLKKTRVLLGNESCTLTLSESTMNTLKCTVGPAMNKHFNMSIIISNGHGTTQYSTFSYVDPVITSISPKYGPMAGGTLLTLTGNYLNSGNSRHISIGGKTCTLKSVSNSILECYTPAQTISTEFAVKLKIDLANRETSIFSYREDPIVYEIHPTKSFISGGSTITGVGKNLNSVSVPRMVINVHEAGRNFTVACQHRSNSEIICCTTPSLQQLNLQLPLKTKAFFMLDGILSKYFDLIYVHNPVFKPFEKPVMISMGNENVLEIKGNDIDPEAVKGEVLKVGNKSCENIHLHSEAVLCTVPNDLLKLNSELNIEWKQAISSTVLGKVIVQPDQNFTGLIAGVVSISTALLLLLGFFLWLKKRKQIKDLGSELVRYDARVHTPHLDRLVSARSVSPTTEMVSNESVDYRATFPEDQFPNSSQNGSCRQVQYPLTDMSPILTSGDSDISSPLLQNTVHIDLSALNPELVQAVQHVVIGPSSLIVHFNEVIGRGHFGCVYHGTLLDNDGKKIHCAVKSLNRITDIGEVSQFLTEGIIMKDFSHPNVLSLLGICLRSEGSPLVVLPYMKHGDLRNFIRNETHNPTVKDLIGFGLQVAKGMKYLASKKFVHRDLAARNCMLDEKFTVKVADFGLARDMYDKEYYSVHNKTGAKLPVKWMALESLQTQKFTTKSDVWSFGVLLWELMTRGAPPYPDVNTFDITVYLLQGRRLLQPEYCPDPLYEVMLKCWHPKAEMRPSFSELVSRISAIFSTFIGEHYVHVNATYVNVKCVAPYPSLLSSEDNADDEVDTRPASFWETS
Method: PC-3 prostate cancer cells (ATCC #CRL-1435) were seeded at 4×10^4 cells/well onto 24-well plates (Greiner #662165), in DMEM (Thermo Fisher #11995-040) containing 10% FBS (Thermo Fisher #26140-079), 1% MEM NEAA (Thermo Fisher #11140-050), 1% GlutaMax (Thermo Fisher #35050-061), and 1% Penicillin Streptomycin (Thermo Fisher #15140-122). PC-3 cells were incubated at 37° C., 5% CO2 for 24 h and then starved for 3 h in serum-free medium. Test compounds were serially diluted to produce an 8-point dose curve in fresh serum-free medium to a final concentration of 0.3% DMSO (vehicle) and added to the cells and incubated for 1 h. Cells were then stimulated with 100 ng/mL recombinant human HGF (R&D Systems #294-HG-250) for 10 min, washed with cold PBS and immediately lysed with 130 μL of cold 1× lysis buffer [20 mM Tris, 137 mM sodium chloride, 2 mM EDTA, 10% glycerol, 1% NP-40 alternative, 1 mM activated sodium orthovanadate, 1 mM PefaBloc SC (Sigma-Aldrich #11429868001), protease/phosphatase inhibitor tablet (Thermo Fisher #A32959)]. Lysates were clarified by centrifugation and 100 μL/well added into the PathScan phospho-Met (panTyr) Sandwich ELISA (Cell Signaling Technology #7333). Assay was performed according to manufacturer's instructions. Positive control wells (100% activity) contained HGF-stimulated, DMSO-treated cell lysates. Negative control wells (0% activity) contained HGF-stimulated, reference inhibitor-treated cell lysates. IC50 values were calculated by nonlinear regression analysis using a 4-parameter logistic curve fit in ActivityBase XE (IDBS).

[2] = biological target: T1, AXL (Homo sapiens, UniProt P30530); test: AXL autophosphorylation ELISA in A-172 cells; conditions: cellular activity, Gas6-stimulated, phospho-AXL ELISA
T1 construct: endogenous in cells; host or cells: A-172 glioblastoma cells (ATCC #CRL-1620)
T1 sequence (P30530 26-894): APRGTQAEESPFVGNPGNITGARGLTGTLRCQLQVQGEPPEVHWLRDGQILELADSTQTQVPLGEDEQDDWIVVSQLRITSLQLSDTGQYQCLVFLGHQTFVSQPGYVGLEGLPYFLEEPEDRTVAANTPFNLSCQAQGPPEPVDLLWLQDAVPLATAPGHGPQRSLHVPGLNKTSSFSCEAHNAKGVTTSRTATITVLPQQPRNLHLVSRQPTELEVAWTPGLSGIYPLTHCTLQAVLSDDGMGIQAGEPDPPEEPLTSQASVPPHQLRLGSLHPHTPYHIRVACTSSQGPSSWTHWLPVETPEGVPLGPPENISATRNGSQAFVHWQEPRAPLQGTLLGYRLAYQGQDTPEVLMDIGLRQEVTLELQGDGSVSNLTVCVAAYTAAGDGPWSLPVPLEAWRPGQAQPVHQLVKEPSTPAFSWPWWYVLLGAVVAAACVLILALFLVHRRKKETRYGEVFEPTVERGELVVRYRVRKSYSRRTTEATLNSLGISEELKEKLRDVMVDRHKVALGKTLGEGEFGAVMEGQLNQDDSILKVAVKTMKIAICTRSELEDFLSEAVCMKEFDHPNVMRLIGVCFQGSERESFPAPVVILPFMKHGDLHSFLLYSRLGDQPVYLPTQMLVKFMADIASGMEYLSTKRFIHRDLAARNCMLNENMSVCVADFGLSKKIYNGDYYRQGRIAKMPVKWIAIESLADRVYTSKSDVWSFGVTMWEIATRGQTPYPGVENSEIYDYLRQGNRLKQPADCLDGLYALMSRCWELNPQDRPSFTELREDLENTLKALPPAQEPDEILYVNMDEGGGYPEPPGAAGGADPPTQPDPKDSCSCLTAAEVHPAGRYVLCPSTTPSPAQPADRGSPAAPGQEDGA
Method: A-172 glioblastoma cells (ATCC #CRL-1620) were seeded at 2.5×10^5 cells/well onto 24-well plates (Greiner #662165), in DMEM (Thermo Fisher #11995-040) containing 10% FBS (Thermo Fisher #26140-079), 1% MEM NEAA (Thermo Fisher #11140-050), 1% GlutaMax (Thermo Fisher #35050-061) and 1% Penicillin Streptomycin (Thermo Fisher #15140-122). A-172 cells were incubated at 37° C., 5% CO2 for 24 h and then starved for 24 h in serum-free medium. Test compounds were serially diluted to produce an 8-point dose curve in fresh serum-free medium to a final concentration of 0.3% DMSO (vehicle) and added to the cells and incubated for 1 h. Cells were then stimulated with 1 μg/mL recombinant human Gas6 (R&D Systems #885-GSB-500) for 15 min, washed with cold PBS and immediately lysed with 150 μL of cold 1× lysis buffer [20 mM Tris, 137 mM sodium chloride, 2 mM EDTA, 10% glycerol, 1% NP-40 alternative, 1 mM activated sodium orthovanadate, 1 mM PefaBloc SC (Sigma-Aldrich #11429868001), protease/phosphatase inhibitor tablet (Thermo Fisher #A32959)]. Lysates were collected and 100 μL/well added into the human phospho-AXL DuoSet IC ELISA (R&D Systems #DYC2228-2). Assay was performed according to manufacturer's instructions and sample phospho-AXL concentrations were extrapolated using human phospho-AXL control (R&D Systems #841645) as a standard. Positive control wells (100% activity) contained Gas6-stimulated, DMSO-treated cell lysates. Negative control wells (0% activity) contained Gas6-stimulated, reference inhibitor-treated cell lysates. IC50 values were calculated by nonlinear regression analysis using a 4-parameter logistic curve fit in ActivityBase XE (IDBS).

[3] = biological target: KDR (Homo sapiens, UniProt P35968); test: KDR autophosphorylation ELISA in HUVEC cells; design: endogenous in cells; host or cells: HUVEC (Lonza #C2519A); conditions: cellular activity, VEGF165-stimulated, phospho-KDR ELISA
Sequence of KDR (P35968 20-1356): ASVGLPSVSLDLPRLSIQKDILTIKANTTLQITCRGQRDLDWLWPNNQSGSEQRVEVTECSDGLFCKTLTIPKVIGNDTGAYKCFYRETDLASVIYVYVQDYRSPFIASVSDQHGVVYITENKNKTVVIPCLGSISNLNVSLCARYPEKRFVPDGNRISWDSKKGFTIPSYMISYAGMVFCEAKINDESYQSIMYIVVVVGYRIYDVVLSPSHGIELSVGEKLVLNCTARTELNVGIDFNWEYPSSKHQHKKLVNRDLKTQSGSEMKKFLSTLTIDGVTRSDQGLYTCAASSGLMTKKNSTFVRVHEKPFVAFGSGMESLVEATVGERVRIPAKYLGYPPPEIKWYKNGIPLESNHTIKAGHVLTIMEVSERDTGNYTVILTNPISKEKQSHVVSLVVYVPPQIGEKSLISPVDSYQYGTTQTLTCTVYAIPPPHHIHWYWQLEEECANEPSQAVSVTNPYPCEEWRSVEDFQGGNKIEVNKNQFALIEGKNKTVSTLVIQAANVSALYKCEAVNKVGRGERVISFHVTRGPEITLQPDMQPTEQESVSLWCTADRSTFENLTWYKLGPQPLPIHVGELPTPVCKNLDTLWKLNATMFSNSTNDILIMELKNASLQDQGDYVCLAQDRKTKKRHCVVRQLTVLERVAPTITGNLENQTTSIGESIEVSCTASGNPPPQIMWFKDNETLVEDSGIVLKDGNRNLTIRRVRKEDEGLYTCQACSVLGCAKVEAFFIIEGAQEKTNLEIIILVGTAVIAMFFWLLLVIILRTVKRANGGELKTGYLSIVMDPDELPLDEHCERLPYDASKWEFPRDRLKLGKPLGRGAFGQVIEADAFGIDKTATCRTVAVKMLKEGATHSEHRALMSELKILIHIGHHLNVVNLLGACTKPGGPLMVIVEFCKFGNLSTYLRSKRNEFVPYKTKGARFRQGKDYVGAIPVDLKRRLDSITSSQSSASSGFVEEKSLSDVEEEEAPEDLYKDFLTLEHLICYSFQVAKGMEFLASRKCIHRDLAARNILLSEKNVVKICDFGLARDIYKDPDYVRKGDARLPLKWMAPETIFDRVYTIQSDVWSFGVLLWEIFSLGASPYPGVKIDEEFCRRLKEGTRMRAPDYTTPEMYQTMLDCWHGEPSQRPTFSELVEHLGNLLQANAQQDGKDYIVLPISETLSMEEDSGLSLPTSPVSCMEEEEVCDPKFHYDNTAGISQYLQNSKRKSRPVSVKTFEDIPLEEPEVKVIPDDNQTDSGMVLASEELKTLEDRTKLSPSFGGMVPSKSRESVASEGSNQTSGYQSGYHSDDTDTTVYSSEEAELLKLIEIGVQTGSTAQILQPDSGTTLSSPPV
Method: Human umbilical vein endothelial cells or HUVEC (Lonza #C2519A) were seeded at 2×10^4 cells/well onto 96-well plates (Corning #3904), in EGM-2 growth medium (Lonza #CC-3162) containing 1% Penicillin Streptomycin (Thermo Fisher #15140-122). HUVEC cells were incubated at 37° C., 5% CO2 for 24 h and then starved for 24 h in serum-free EBM-2 basal medium (Lonza #CC-3156) containing 1% Penicillin Streptomycin. Test compounds were serially diluted to produce an 8-point dose curve in fresh serum-free medium to a final concentration of 0.3% DMSO (vehicle) and added to the cells and incubated for 1 h. Cells were then stimulated with 100 ng/mL recombinant human VEGF165 (R&D Systems #293-VE-500) for 5 min, washed with cold PBS, and immediately lysed with 130 μL of cold 1× lysis buffer [20 mM Tris, 137 mM sodium chloride, 2 mM EDTA, 10% glycerol, 1% NP-40 alternative, 1 mM activated sodium orthovanadate, 1 mM PefaBloc SC (Sigma-Aldrich #11429868001), protease/phosphatase inhibitor tablet (Thermo Fisher #A32959)]. Lysates were collected and 100 μL/well added into the human phospho-KDR DuoSet IC ELISA (R&D Systems #DYC1766-2). Assay was performed according to manufacturer's instructions and sample phospho-KDR concentrations were extrapolated using human phospho-KDR control (R&D Systems #841421) as a standard. Positive control wells (100% activity) contained VEGF165-stimulated, DMSO-treated cell lysates. Negative control wells (0% activity) contained non-stimulated cell lysates. IC50 values were calculated by nonlinear regression analysis using a 4-parameter logistic curve fit in ActivityBase XE (IDBS).

Question: With O=C(Nc1ccc(F)cc1)C1(C(=O)Nc2ccc(Oc3ccnc4cc(-c5cncc(C(F)(F)F)c5)ccc34)cc2)CC1 [Compound 48, 1-N′-(4-Fluorophenyl)-1-N-[4-[7-[5-(trifluoromethyl)pyridin-3-yl]quinolin-4-yl]oxyphenyl]cyclopropane-1,1-dicarboxamide] as the molecule, how does the pIC50 [1] read?
Answer: 6.52 to 7.00

Question: How did the pIC50 [1] turn out when CN(C(=O)C1(C(=O)Nc2ccc(Oc3ccnc4cc(-c5cnn(C(F)F)c5)ccc34)cc2)CC1)c1ccc(F)cc1 [Compound 126, 1-N-[4-[7-[1-(Difluoromethyl)pyrazol-4-yl]quinolin-4-yl]oxyphenyl]-1-N′-(4-fluorophenyl)-1-N′-methylcyclopropane-1,1-dicarboxamide] was run?
Answer: < 6.52

Question: O=C(Nc1ccc(F)cc1)C1(C(=O)Nc2ccc(Oc3ccnc4cc(-c5cnc6[nH]ccc6c5)ccc34)cc2)CC1 [Compound 44, 1-N′-(4-Fluorophenyl)-1-N-[4-[7-(1H-pyrrolo[2,3-b]pyridin-5-yl)quinolin-4-yl]oxyphenyl]cyclopropane-1,1-dicarboxamide] was tested. Which pIC50 [1] did it give?
Answer: 6.52 to 7.00

Question: With O=C(Nc1ccc(F)cc1)C1(C(=O)Nc2ccc(Oc3ccnc4cc(C5CCOC5)ccc34)cc2)CC1 (single isomer, unassigned) [Compound 88, 1-N′-(4-Fluorophenyl)-1-N-[4-[7-[oxolan-3-yl]quinolin-4-yl]oxyphenyl]cyclopropane-1,1-dicarboxamide] as the molecule, how does the pIC50 [2] read?
Answer: < 6.52

Question: And the pIC50 [3]?
Answer: < 6.52

Question: What about the pIC50 [1] of the same molecule?
Answer: 7.00 to 8.00

Question: How did the pIC50 [1] turn out when Cc1cc(-c2ccc3c(Oc4ccc(NC(=O)C5(C(=O)Nc6ccc(F)cc6)CC5)cc4)ccnc3c2)cc(C)n1 [Compound 32, 1-N-[4-[7-(2,6-Dimethylpyridin-4-yl)quinolin-4-yl]oxyphenyl]-1-N′-(4-fluorophenyl)cyclopropane-1,1-dicarboxamide] was run?
Answer: 7.00 to 8.00

Question: With O=C(Nc1ccc(F)cc1)C1(C(=O)Nc2ccc(Oc3ccnc4cc(-c5cc(C(F)(F)F)[nH]n5)ccc34)cc2)CC1 [Compound 100, 1-N′-(4-Fluorophenyl)-1-N-[4-[7-[5-(trifluoromethyl)-1H-pyrazol-3-yl]quinolin-4-yl]oxyphenyl]cyclopropane-1,1-dicarboxamide] as the molecule, how does the pIC50 [1] read?
Answer: 6.52 to 7.00

Question: How did the pIC50 [2] turn out when O=C(Nc1ccc(F)cc1)C1(C(=O)Nc2ccc(Oc3ccnc4cc(C5CCOC5)ccc34)cc2)CC1 (single isomer, unassigned) [Compound 89, 1-N′-(4-Fluorophenyl)-1-N-[4-[7-[oxolan-3-yl]quinolin-4-yl]oxyphenyl]cyclopropane-1,1-dicarboxamide] was run?
Answer: < 6.52

Question: And the pIC50 [3]?
Answer: < 6.52

Question: What about the pIC50 [1] of the same molecule?
Answer: 7.00 to 8.00

Question: How did the pIC50 [2] turn out when O=C(Nc1ccc(F)cc1)C1(C(=O)Nc2ccc(Oc3ccnc4cc(-c5ccc(N6CCCC6)nc5)ccc34)cc2)CC1 [Compound 49, 1-N′-(4-Fluorophenyl)-1-N-[4-[7-(6-pyrrolidin-1-ylpyridin-3-yl)quinolin-4-yl]oxyphenyl]cyclopropane-1,1-dicarboxamide] was run?
Answer: 6.52 to 7.00

Question: And the pIC50 [1]?
Answer: 6.52 to 7.00

Question: With O=C(Nc1ccc(F)cc1)C1(C(=O)Nc2ccc(Oc3ccnc4cc(-c5ccc(C6CC6)nc5)ccc34)cc2)CC1 [Compound 43, 1-N-[4-[7-(6-Cyclopropylpyridin-3-yl)quinolin-4-yl]oxyphenyl]-1-N′-(4-fluorophenyl)cyclopropane-1,1-dicarboxamide] as the molecule, how does the pIC50 [2] read?
Answer: 6.52 to 7.00

Question: What about the pIC50 [3] of the same molecule?
Answer: 7.00 to 8.00

Question: What about the pIC50 [1] of the same molecule?
Answer: 6.52 to 7.00

Question: With O=C(Nc1ccc(F)cc1)C1(C(=O)Nc2ccc(Oc3ccnc4cc(-c5ccc(C(F)(F)F)nc5)ccc34)cc2)CC1 [Compound 35, 1-N′-(4-Fluorophenyl)-1-N-[4-[7-[6-(trifluoromethyl)pyridin-3-yl]quinolin-4-yl]oxyphenyl]cyclopropane-1,1-dicarboxamide] as the molecule, how does the pIC50 [1] read?
Answer: 6.52 to 7.00

Question: With O=C(Nc1ccc(F)cc1)C1(C(=O)Nc2ccc(Oc3ccnc4cc(-c5ccnc(C(F)(F)F)c5)ccc34)cc2)CC1 [Compound 36, 1-N′-(4-Fluorophenyl)-1-N-[4-[7-[2-(trifluoromethyl)pyridin-4-yl]quinolin-4-yl]oxyphenyl]cyclopropane-1,1-dicarboxamide] as the molecule, how does the pIC50 [1] read?
Answer: 6.52 to 7.00

Question: With Cc1cc2c(Oc3ccc(NC(=O)C4(C(=O)Nc5ccc(F)cc5)CC4)cc3)ccnc2cc1-c1cn[nH]c1 [Compound 106, 1-N′-(4-Fluorophenyl)-1-N-[4-[6-methyl-7-(1H-pyrazol-4-yl)quinolin-4-yl]oxyphenyl]cyclopropane-1,1-dicarboxamide] as the molecule, how does the pIC50 [2] read?
Answer: 7.00 to 8.00

Question: And the pIC50 [3]?
Answer: ≥ 8.00

Question: And the pIC50 [1]?
Answer: 7.00 to 8.00

Question: How did the pIC50 [2] turn out when Cc1ccc(-c2ccc3c(Oc4ccc(NC(=O)C5(C(=O)Nc6ccc(F)cc6)CC5)cc4)ccnc3c2)cn1 [Compound 37, 1-N′-(4-Fluorophenyl)-1-N-[4-[7-(6-methylpyridin-3-yl)quinolin-4-yl]oxyphenyl]cyclopropane-1,1-dicarboxamide] was run?
Answer: 6.52 to 7.00

Question: And the pIC50 [3]?
Answer: 7.00 to 8.00

Question: And the pIC50 [1]?
Answer: 7.00 to 8.00
